What was measured:
[1] = system: TDP-43 BiFC cells; assay: Cell viability (stained nuclei count) in TDP-43-BiFC cells; assay type: cell-based; settings: Forskolin-only group = 100%
Method: To screen for new TDP-43 aggregation inhibitors, a TDP-43-BiFC cell model that facilitates observation of TDP-43 aggregate formation in living cells was used. Specifically, TDP-43-BiFC cells were dispensed into a 384-well plate, and the next day, the compounds prepared according to Examples 1 to 46 were treated at concentrations of 3 and 10 µM, respectively, together with Forskolin (treatment concentration 30 µM), which is a compound that induces TDP-43 aggregation by activating the phosphorylation enzyme PKA. After 48 hours, nuclei within cells were stained using Hoechst (treatment concentration 1 µg/mL), and BiFC fluorescence intensity was automatically quantified using Operetta (PerkinElmer) to count the stained nuclei in each well from the entire plate. The group treated only with Forskolin, which induces TDP-43 aggregation, was set as the reference point with 100% TDP-43 aggregation state, and the effect was confirmed by the formula "(BiFC fluorescence intensity by the compounds synthesized according to the Examples of the disclosure - fluorescence intensity of the untreated control group)/(fluorescence intensity of the control group treated only with Forskolin that induces TDP-43 aggregation - fluorescence intensity of the untreated control group) × 100". In addition, the degree of cytotoxicity induced by the newly synthesized compounds was also calculated using the formula "(number of stained nuclei in the compound-treated group/number of stained nuclei in the Forskolin-treated group) × 100", with the group treated only with Forskolin as the reference point at 100% viability. From the treatment results, substances that inhibit intracellular TDP-43 aggregation were identified through screening from a series of candidates based on the criteria of 80% or more TDP-43 aggregation inhibition and 60% cell viability at a compound treatment concentration of 3 µM.
Furthermore, to confirm the TDP-43 aggregation inhibitory effect according to the concentration of the compounds screened in Experimental Example 3, the screened compounds were treated to […] at concentrations of 0.003, 0.01, 0.03, 0.1, 0.3, 1, 3, and 10 µM, respectively, together with Forskolin (treatment concentration 30 µM), which is a TDP-43 aggregation-inducing substance. After 48 hours, cell images were examined to analyze the TDP-43 aggregation reaction and degree of cytotoxicity. The IC50 and toxicity of the compounds were analyzed by nonlinear regression analysis using Prism software (GraphPad). The calculated results for representative compounds are shown in Table 4 below: TDP-43 protein aggregation inhibitory effect and cell viability of novel compounds.

[2] = biological target: T1, CYP2C9 (Homo sapiens, UniProt P11712); assay: CYP isoenzyme activity inhibition in human liver microsomes, CYP2C9; assay type: in vitro ADME; settings: 10 µM compound; human liver microsomes 0.25 mg/mL; relative to control without compound
T1 construct: human liver microsomes (0.25 mg/mL); from tissue; host or cells: human liver microsomes
Method: (§1) The CYP isoenzyme activity inhibitory effect by the compounds prepared according to Examples 1 to 46 was confirmed. Specifically, human liver microsomes (0.25 mg/mL), 0.1 M phosphate buffer solution (pH 7.4), a substrate drug cocktail of five drug metabolizing enzymes (Phenacetin 50 µM, Diclofenac 10 µM, S-mephenytoin 100 µM, Dextromethorphan 5 µM, and Midazolam 2.5 µM), and the compounds were added at concentrations of 0 or 10 µM, respectively, and pre-incubated at 37°C for 5 minutes, and then NADPH generation system solution was added and incubated at 37°C for an additional 15 minutes. Thereafter, an acetonitrile solution containing an internal standard (Terfenadine) was added to terminate the reaction, and after centrifugation for 5 minutes (14,000 rpm, 4°C), the supernatant was injected into an LC-MS/MS system to simultaneously analyze the metabolites of the substrate drugs, thereby evaluating the drug metabolizing enzyme inhibitory activity.
(§2) The metabolites of each CYP isoenzyme marker drug generated through the reaction were analyzed using a Shimadzu Nexera XR system and TSQ vantage (Thermo). A Kinetex C18 (2.1 × 100 mm, 2.6 µm, particle size; Phenomenex, USA) was used as the HPLC column, and (A) distilled water containing 0.1% formic acid and (B) acetonitrile containing 0.1% formic acid were used as mobile phases, and a gradient program as shown in Table 6 below was applied.
(§3) The generated metabolites were quantified using MRM (Multiple Reaction Monitoring) quantitative mode, and Xcalibur (version 1.6.1) was used for data analysis. To show the CYP isoenzyme activity inhibitory effect of the novel compounds prepared according to the Examples of the disclosure, the % activity of CYP isoenzymes relative to the control group without compound addition is shown in Table 6 below. Additionally, to confirm the difference in effect according to substituents, Comparative Compounds 1 and 5, which are two compounds that share a similar parent nucleus structure with Compounds 1 to 46 of the disclosure while Cy is substituted with aromatic heteroaryl instead of saturated heterocyclyl, were selected as comparative compounds and their activities are shown together.

[3] = biological target: T2, CYP2C19 (Homo sapiens, UniProt P33261); assay: CYP isoenzyme activity inhibition in human liver microsomes, CYP2C19; assay type: in vitro ADME; settings: 10 µM compound; human liver microsomes 0.25 mg/mL; relative to control without compound
T2 construct: human liver microsomes (0.25 mg/mL); from tissue; host or cells: human liver microsomes
Method: as §1, §2, §3

[4] = Liver microsomal stability, mouse; assay type: in vitro ADME; settings: 1 µM compound; 0.5 mg/mL microsomes; NADPH; 30 minutes at 37°C
Method: (§4) Liver microsomal stability by the compounds prepared according to Examples 1 to 46 was confirmed. Specifically, four types of liver microsomes (human, dog, rat, and mouse each at 0.5 mg/mL), 0.1 M phosphate buffer solution (pH 7.4), and the compounds at 1 µM concentration were added and pre-incubated at 37°C for 5 minutes, and then NADPH generation system solution was added and incubated at 37°C for an additional 30 minutes. Thereafter, an acetonitrile solution containing an internal standard (chloropropamide) was added to terminate the reaction, and after centrifugation for 5 minutes (14,000 rpm, 4°C), the supernatant was injected into an LC-MS/MS system to analyze the substrate drug, thereby evaluating the metabolic stability of 8 compounds.
(§5) The amount of remaining substrate through the reaction was analyzed using a Shimadzu Nexera XR system and TSQ vantage (Thermo). A Kinetex XB-C18 (2.1 × 100 mm, 2.6 µm, particle size; Phenomenex, USA) was used as the HPLC column, and (A) distilled water containing 0.1% formic acid and (B) acetonitrile containing 0.1% formic acid were used as mobile phases. Analyst software (version 1.6.3) and Xcalibur (version 1.6.1) were used for data analysis. The calculated results are shown in Table 5 below: Liver microsomal stability data of novel compounds from […] (human, rat, and mouse).

[5] = Liver microsomal stability, rat; assay type: in vitro ADME; settings: 1 µM compound; 0.5 mg/mL microsomes; NADPH; 30 minutes at 37°C
Method: as §4, §5

[6] = Liver microsomal stability, human; assay type: in vitro ADME; settings: 1 µM compound; 0.5 mg/mL microsomes; NADPH; 30 minutes at 37°C
Method: as §4, §5

T2 sequence (P33261 whole entry): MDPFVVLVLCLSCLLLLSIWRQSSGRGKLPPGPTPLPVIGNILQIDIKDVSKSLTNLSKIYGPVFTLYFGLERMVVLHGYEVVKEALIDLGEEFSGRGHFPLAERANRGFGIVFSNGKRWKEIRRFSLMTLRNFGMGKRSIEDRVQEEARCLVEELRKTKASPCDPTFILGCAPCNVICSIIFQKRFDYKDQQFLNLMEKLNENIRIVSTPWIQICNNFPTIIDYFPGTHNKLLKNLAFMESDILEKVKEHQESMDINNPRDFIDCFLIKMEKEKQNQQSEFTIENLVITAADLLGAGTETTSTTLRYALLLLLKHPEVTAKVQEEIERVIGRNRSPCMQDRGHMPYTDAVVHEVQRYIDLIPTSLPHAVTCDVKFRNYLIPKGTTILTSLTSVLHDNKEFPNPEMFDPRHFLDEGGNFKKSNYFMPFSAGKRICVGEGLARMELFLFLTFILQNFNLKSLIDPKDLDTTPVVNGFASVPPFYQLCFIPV
T1 sequence (P11712 whole entry): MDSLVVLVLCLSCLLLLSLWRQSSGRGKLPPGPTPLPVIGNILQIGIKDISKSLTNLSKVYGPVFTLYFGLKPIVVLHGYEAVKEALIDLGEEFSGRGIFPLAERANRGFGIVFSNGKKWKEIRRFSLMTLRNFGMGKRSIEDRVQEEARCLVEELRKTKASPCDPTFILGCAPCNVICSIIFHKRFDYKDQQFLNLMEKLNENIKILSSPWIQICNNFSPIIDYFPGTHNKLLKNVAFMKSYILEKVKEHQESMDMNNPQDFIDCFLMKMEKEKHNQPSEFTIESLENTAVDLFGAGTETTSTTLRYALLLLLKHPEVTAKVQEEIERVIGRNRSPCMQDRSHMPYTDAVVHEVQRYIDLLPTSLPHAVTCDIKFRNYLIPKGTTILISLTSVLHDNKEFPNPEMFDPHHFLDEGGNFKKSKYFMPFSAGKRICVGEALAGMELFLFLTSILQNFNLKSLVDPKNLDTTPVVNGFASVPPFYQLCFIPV

Row | Structure (SMILES) | Cell viability (%) (@ 3 uM) [1] | CYP2C9 (% activity) [2] | CYP2C19 (% activity) [3] | Mouse microsomes (% remaining) [4] | Rat microsomes (% remaining) [5] | Human microsomes (% remaining) [6]
1 | CN1CCN(c2nc3ccc(NN=C(C#N)C#N)cc3o2)CC1 [Compound 14, (2-(4-methylpiperazin-1-yl)benzo[d]oxazol-6-yl)carbonohydrazonoyl dicyanide] | 101.4% | 88 % activity | 95.5 % activity |  |  | 
2 | N#CC(C#N)=NNc1ccc2nc(N3CCNCC3)oc2c1 [Compound 25, (2-(piperazin-1-yl)benzo[d]oxazol-6-yl)carbonohydrazonoyl dicyanide] | 76.7% | 93.5 % activity | 85.7 % activity |  |  | 
3 | CC1CN(c2nc3ccc(NN=C(C#N)C#N)cc3o2)CC(C)O1 (stereo not drawn) [Compound 18, (2-(2,6-dimethylmorpholino)benzo[d]oxazol-6-yl)carbonohydrazonoyl dicyanide] | 102.1% | > 100 % activity | 100 % activity | 86.2 % remaining | 72.9 % remaining | 95.8 % remaining
4 | COC1CCN(c2nc3ccc(NN=C(C#N)C#N)cc3s2)CC1 [Compound 9, (2-(4-methoxypiperidin-1-yl)benzo[d]thiazol-6-yl)carbonohydrazonoyl dicyanide] | 76.2% | 60.7 % activity | 86.9 % activity | 83.8 % remaining | 17.7 % remaining | 5.0 % remaining
5 | CC1CN(c2nc3ccc(NN=C(C#N)C#N)cc3o2)CCO1 (stereo not drawn) [Compound 15, (2-(2-methylmorpholino)benzo[d]oxazol-6-yl)carbonohydrazonoyl dicyanide] | 105.2% | 88.6 % activity | 87.9 % activity | > 100 % remaining | 60 % remaining | > 100 % remaining
6 | CC(=O)N1CCN(c2nc3ccc(NN=C(C#N)C#N)cc3o2)CC1 [Compound 31, (2-(4-acetylpiperazin-1-yl)benzo[d]oxazol-6-yl)carbonohydrazonoyl dicyanide] | 82.7% | 88.8 % activity | 90.8 % activity | > 100 % remaining | 88.3 % remaining | 99.9 % remaining
7 | Cn1c(N2C3CCC2COC3)nc2cc(NN=C(C#N)C#N)ccc21 [Compound 35, (2-(3-oxa-8-azabicyclo[3.2.1]octan-8-yl)-1-methyl-1H-benzo[d]imidazol-5-yl)carbonohydrazonoyl dicyanide] | 67.4% | 84.3 % activity | 82 % activity | 95.1 % remaining | 74.1 % remaining | 94.3 % remaining
8 | N#CC(C#N)=NNc1ccc2nc(NC(=O)N3CC4CCC(C3)O4)sc2c1 [Compound 40, (2-(8-oxa-3-azabicyclo[3.2.1]octane-3-carboxamido)benzo[d]thiazol-6-yl)carbonohydrazonoyl dicyanide] | 95.6% | 46.9 % activity | 65.7 % activity | 93.4 % remaining | 87.7 % remaining | 94.2 % remaining
9 | CN1CCN(c2nc3ccc(NN=C(C#N)C#N)cc3s2)CC1 [Compound 8, (2-(4-methylpiperazin-1-yl)benzo[d]thiazol-6-yl)carbonohydrazonoyl dicyanide] | 83.0% | > 100 % activity | > 100 % activity | 77.4 % remaining | 76.6 % remaining | 83.9 % remaining
10 | N#CC(C#N)=NNc1ccc2oc(N3CCOCC3)nc2c1 [Compound 3, (2-morpholinobenzo[d]oxazol-5-yl)carbonohydrazonoyl dicyanide] | 102.3% | > 100 % activity | > 100 % activity | 80.6 % remaining | 73.0 % remaining | 99.4 % remaining
11 | Cn1c(N2CCOCC2)nc2ccc(NN=C(C#N)C#N)cc21 [Compound 5, (1-methyl-2-morpholino-1H-benzo[d]imidazol-6-yl)carbonohydrazonoyl dicyanide] | 109.2% | 98 % activity | 90.2 % activity | 91.9 % remaining | 77.8 % remaining | 77.8 % remaining
12 | CCn1c(N2CCOCC2)nc2ccc(NN=C(C#N)C#N)cc21 [Compound 32, (1-ethyl-2-morpholino-1H-benzo[d]imidazol-6-yl)carbonohydrazonoyl dicyanide] | 59.7% | 65.1 % activity | 77.1 % activity | 92.3 % remaining | 81.7 % remaining | 95.5 % remaining
13 | CC(C)N1CCN(c2nc3ccc(NN=C(C#N)C#N)cc3s2)CC1 [Compound 27, (2-(4-isopropylpiperazin-1-yl)benzo[d]thiazol-6-yl)carbonohydrazonoyl dicyanide] | 104.8% | 58.5 % activity | 95.4 % activity |  |  | 
14 | N#CC(C#N)=NNc1ccc2nc(N3CCNCC3)sc2c1 [Compound 24, (2-(piperazin-1-yl)benzo[d]thiazol-6-yl)carbonohydrazonoyl dicyanide] | 83.1% | 72.0 % activity | 67.9 % activity |  |  | 
